Reference: patent US9725430B2, “Use of small molecule inhibitors targeting EYA tyrosine phosphatase” (Children's Hospital Medical Center, priority 2013, dated 2017)

Legend:
[1] = target: PTP1B (Homo sapiens (Human), UniProt P18031); assay: PTP1B-catalyzed pNPP hydrolysis; type: biochemical; details: for IC50: pNPP substrate
Protocol: The catalytic domain of human Eya2 (“hEYA2(ED)”) was similarly sub-cloned as a polyhistidine fusion construct in the vector pDEST-527. Fusion protein was purified by NiNTA chromatography and followed by size-exclusion chromatography over a Superdex-75 column. The relative purity of protein samples was determined using SDS-PAGE. PTP1B was purified as described previously (Rayapureddi, J. P. et al. Nature 426, 295-298 (2003), incorporated by reference in its entirety).
An inhibitory assay was conducted using the previously described p-nitrophenylphosphate assay (Rayapureddi, J. P. et al. Nature 426, 295-298 (2003)). Briefly, ED was incubated in a reaction mixture containing 20 mM MES pH 6, 2 mM MgCl2, 125 μM inhibitor, 3.4 mM para-nitrophenol phosphate (pNPP) and 0.01 μg/μL enzyme.
PTP1B is a classical Cys-based tyrosine phosphatase.

[2] = test system: MCF10A(EYA2) cells; assay: Transwell migration of MCF10A-EYA2 cells; type: cell-based; details: 7.5 μM
From the text: The tyrosine phosphatase activity of Eya3 and Eya2 promotes single cell motility in breast cancer cells (Pandey, R. N. et al. Oncogene (2010) 29:3715-3722, incorporated by reference in its entirety). EYA2 is over-expressed in breast cancers and is associated with increased metastasis and a poorer outcome (Farabaugh, et al. Oncogene (2011) 259). […] Overexpression of EYA2, but not the tyrosine-phosphatase dead mutant, promoted cell motility (FIG. 2a). […] This effect was dose-dependent (FIG. 2d) and compound (1a) was able to reduce cell motility by over 50% at the lowest concentration (1 μM) tested.
(§1) In order to determine whether EYA3 knock down would affect cell migration, a modified Boyden chamber assay was used to measure HUVEC migration. Briefly, human umbilical vein endothelial cells (HUVECs) were purchased from Lonza (Walkersville, Md.) and maintained in the endothelial cell growth medium (PromoCell, Hleidelberg, Germany), under a 5% CO2 atmosphere. MCF10A cells from ATCC were stably transfected with either pcDNA 3.2N5-DEST (vector control), V5-EYA2 or V5-EYA2(D250N). Transwell migration experiments were performed as previously described (Pandey, R. N. et al. Oncogene 29, 3715-3722, (2010)).

[3] = test system: HUVECs; assay: HUVEC tubulogenesis on Matrigel; type: cell-based, human; details: for tube formation on Matrigel: HUVEC
From the text: Primary endothelial cells (ECs) on basement membrane rapidly attach, align themselves and form capillary-like tubules with lumens and tight cell-cell contacts. […] To better understand the stage in matrigel tube-formation affected by compound 1g cells plated on growth-factor reduced matrigel and treated with either vehicle or compound 1g were followed. Differences become apparent within the first two hours and were clearly visible at the 6-hour time-point. The ECs are much less organized in the presence of compound 1g. […] The effect of compound 1g on tube formation was attenuated in the presence of high concentrations of fetal bovine serum (FBS), likely reflecting non-specific protein binding.
The EYA inhibitors were also tested in tubulogenesis assays. The tubulogenesis assays were performed in 15-well micro-slide (ibidi LLC, Verona Wis.), using growth factor-reduced matrigel (BD Bioscience, Billerica, Mass.). The matrix was prepared by loading 10 μl of matrigel in each micro-slide well and allowing it to solidify for 30 minutes at 37° C. HUVECs were trypsinized and resuspended at 100.000 cell/ml in EBM+2.5% FBS. 50 μl (5,000 cell) were loaded on top of the solidified matrigel and the preparation was incubated for 20 hours at 37° C. in a humidified incubator in a 5% CO2 atmosphere. Bright field images were taken using an inverted microscope at 2.5× magnification, which allowed imaging of the whole well in two pictures that were later merged in Photoshop. Tubular structures were traced and counted using NeuroJ (NIH, USA). In experiments with inhibitor, the inhibitor was added to the cell suspension before loading. Each sample was loaded in triplicate, and each treatment was repeated for reproducibility.

[4] = test system: mouse aortic rings; assay: Aortic ring sprouting assay; type: cell-based; details: 5 μM, 10 days
Protocol: Additionally, the effect of compounds 1d, 1f, 1h, 1i, 1g, 2 and 2a on cell proliferation, migration, tube formation, micro-vessel branching, and perivascular recruitment using an aortic ring sprouting assay. When slices of mouse aorta are cultured in collagen gels there is typically a lag phase for the first 4 days followed by linear sprouting of endothelial cells. By day 6, branching is observed. All the test compounds were initially assayed at 7.5 μM and the number of branch-points counted. When there was a severe effect (no visible sprouting), or when there was no apparent effect, other doses were tested to establish a dose-dependence. All of the compounds assayed were able to attenuate aortic ring sprouting. There was a strong reduction in initial sprouting and some attenuation of branching. With the exception of 2a, in all cases where there was sprouting, the length of sprouts was shorter than in the controls.
Endothelial cell migration can also be studied […] using the aortic ring assay in which sprouting angiogenesis is monitored by the formation of vascular sprouts outside the wall of mouse aortic rings incubated in collagen matrix and stimulated by VEGF (Gerhardt, H., et al. EXS, 3-15 (2005), hereby incorporated by reference in its entirety). Briefly, mice were obtained from the Cincinnati Children's veterinary service and handled according to the institutional animal care and use protocol. […] Mice were 4 to 6 weeks old female C57BL16, and aortic ring explants were cultured at 37° C. in a humidified incubator under a 5% CO2 atmosphere.
Each inhibitor was serially diluted (between 0.25 mM and 7.5 mM) to stocks of 1000× the working concentrations in sterile 100% DMSO in order to achieve an equal final concentration of DMSO (0.1% v/v) in all culture conditions. For the experiments, the compounds were diluted in EBM containing 2.5% FBS, penicillin/streptomycin and 20 ng/ml VEGF165 (R&D Systems, Minneapolis, Minn.). Each compound was applied from the first day of culture over a 10-day period with medium change every two days. In all experiments, the vehicle (DMSO, 0.1%) was used as control. The sprouting density was derived from counting the number of branches per ring, and the extent of angiogenic sprouting was estimated by measuring the total surface area covered by the vessels as illustrated in FIG. 7.

[5] = test system: HUVECs; assay: HUVEC transwell migration; type: cell-based, human; details: 5 μM
From the text: as §1

[6] = test system: developing zebrafish vasculature; assay: Zebrafish model of angiogenesis; type: in vivo; details: exposure from 5.25 hpf, analysis at 24 hpf; compound 1 at 0.25 μM
Protocol: Embryos (FLK1-GFP trangenic) were maintained in fish water until the 50% epiboly stage (5.25 hpf) and were transferred into wells of 24-well plate containing the inhibitors in fish water. The analysis for vascular defects was performed after the 24 hpf stage, and embryos were imaged using a fluorescence microscope.
Transgenic fish expressing EGFP in endothelial cells (Tg(flk1:EGFP)) were used to facilitate visualization of the developing vasculature. In control experiments embryos were treated with 0.1% DMSO (vehicle). At the time of analyses (24 hpf) developing vessels normally migrated from the lateral plate mesoderm to the midline and formed the vascular cord, subsequently forming the dorsal aorta and the posterior cardinal vein and followed by the formation of intersegmental vessels at designated branch points (FIG. 6b).

PTP1B, sequence (P18031 whole entry, species assumed, the tested form may be a part): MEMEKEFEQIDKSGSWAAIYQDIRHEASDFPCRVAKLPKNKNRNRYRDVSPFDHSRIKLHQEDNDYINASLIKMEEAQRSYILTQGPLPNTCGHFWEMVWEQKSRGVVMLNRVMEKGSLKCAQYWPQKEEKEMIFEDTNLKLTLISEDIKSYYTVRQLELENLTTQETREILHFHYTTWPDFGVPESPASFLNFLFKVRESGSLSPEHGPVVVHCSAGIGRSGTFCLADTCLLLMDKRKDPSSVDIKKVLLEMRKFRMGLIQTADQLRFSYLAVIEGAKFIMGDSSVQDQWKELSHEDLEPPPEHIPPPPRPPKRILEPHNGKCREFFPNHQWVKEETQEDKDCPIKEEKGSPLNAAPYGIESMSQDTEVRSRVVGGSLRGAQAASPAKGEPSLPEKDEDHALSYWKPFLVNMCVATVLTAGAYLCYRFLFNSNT

Compound	IC50 [1]	cell migration [2]	tubulogenesis inhibition ([3]; 7.5 μM)	tube formation on Matrigel [3]	sprout length and microvascular density of aortic rings [4]	HUVEC cell motility [5]	intersegmental vessels in zebrafish embryos [6]	fold greater activity towards EYA3 than PTP1B ([1]; EYA3 vs PTP1B)
CCc1oc2ccccc2c1C(=O)c1cc(Br)c(O)c(Br)c1 [Compound 1, Benzbromarone, reference compound]	53.8 µM	significantly inhibited cell migration	effective at the highest concentrations tested	inhibit EYA3 protein in cell migration and tubulogenesis	shorter sprouts and significantly lower microvascular density	attenuated HUVEC cell motility	significant reduction of intersegmental vessels	–
CCc1oc2ccccc2c1C(=O)c1ccc(O)cc1 [Compound 1a]	> 150 µM	significantly inhibited cell migration	–	inhibit EYA3 protein in cell migration and tubulogenesis	shorter sprouts and significantly lower microvascular density	attenuated HUVEC cell motility	reduced the number of intersegmental vessels, but were less potent	over 100 fold
